Values of other authors in publication PMC13021292, “Safety, tolerability and pharmacokinetics of DNDI‐6148, a novel agent for leishmaniasis: A randomized, controlled, single ascending dose study in healthy participants” (British Journal of Clinical Pharmacology, 2025).

Parameters: method as in earlier work
Settings: cited from earlier work

For `CC1(C)OB(O)c2cc(NC(=O)c3ccc(F)cc3C(F)(F)F)ccc21` [acoziborole], the “metabolism and elimination in humans” value is given as “slow liver metabolism and predominant hepato‐biliary elimination”.
